Assay results reported in patent publication US20260257992A1, “AGONISTS OF SMALL HETERODIMER PARTNER FOR CANCER THERAPY” (THE BOARD OF TRUSTEES OF THE UNIVERSITY OF ILLINOIS, priority 2023, published 2026).

Assays:
IL1b mRNA = IL1b mRNA reduction in Raw cells; assay type: cell-based; set-up: key: ✓: using strict cutoffs with respect to DSHN for passing each metric; X: using strict cutoffs with respect to DSHN for passing each metric; conditions: pass/fail with respect to DSHN
Description: (§1) Development of a more efficacious NR0B2 agonist. While DSHN was a useful proof-of-concept small molecule, macrophages required high doses and chronic exposure for robust influences on subsequent Tregs expansion. […] Therefore, we synthesized several derivatives of DSHN and screened them using a reporter assay which makes use of the endogenous cholesterol homeostatic feedback loop, where FXR activation upregulates NR0B2, which then inhibits LXR and its normal induction of ABCA1. We then followed this screen with several others with stringent cutoffs: effect on endogenous ABCA1 and IL1β expression, reduction of Treg expansion in either macrophage or DC co-cultures, and low cellular toxicity (FIG. 5A, Table 4).

Treg expansion [1] = assay: Treg expansion in co-culture with compound-treated BMDMs (macrophages); assay type: cell-based, mouse; set-up: key to Treg expansion macrophages: ✓: using strict cutoffs with respect to DSHN for passing each metric; X: using strict cutoffs with respect to DSHN for passing each metric; conditions: pass/fail with respect to DSHN
Experimental: (§2) Preparation of Bone Marrow-Derived Macrophages (BMDMs) and Dendritic Cells. Bone marrow cells were collected from mouse tibia and femur. Cells were passed through 70-micron cell strainer and subsequently cultured 10 mL complete RPMI media supplemented with 20 ng/mL of recombinant murine M-CSF (576406; BioLegend, 315-02 PeproTech). On day 3, additional 5 ml of the complete media was added. On day 7, media was replaced. BMDMs were harvested on day 10 using cell stripper solution for further experiments. Dendritic cells were isolated from the spleens of wildtype, using mouse CD11c UltraPure MicroBeads (130-125-835; Miltenyi Biotec) according to the manufacturer's instructions) and cultured in RPMI medium supplemented with 10% heat-inactivated charcoal-stripped FBS, 50 μM β-mercaptoethanol, 1% sodium pyruvate, 1% nonessential amino acids, % penicillin/streptomycin, and 1% Glutamax.
(§3) In vitro Treg expansion assays. T cells were cultured in RPMI medium supplemented with 10% heat-inactivated charcoal-stripped FBS, 50 μM β-mercaptoethanol (Gibco), 1% sodium pyruvate, 1% nonessential amino acids, % penicillin/streptomycin, and 1% Glutamax (Gibco). Naïve CD4^+ T cells were isolated from the spleens of wildtype and OT-II, using Naive CD4^+ T Cell Isolation Kit (Miltenyi Biotec according to the manufacturer's instructions). T cells were labeled with the vital dye CFSE (BioLegend) or Cell Trace Violet (ThermoFisher) according to the manufacturer's instructions. For wildtype Treg expansion in presence of antigen presenting cells, naïve CD4^+ T cells were co-cultured with APC at indicated ratio in the presence of 0.5 μg/mL (anti-CD3 BioLegend), 0.5 ng/mL TGFβ (BioLegend) and 0.5 ng/ml IL-2 (BioLegend) for 72 hr at 37° C. For OT-II Treg expansion, OTII naïve CD4^+ T cells from OT-II mice were activated by antigen presentation by culturing BMDMs were primed with 10 μg/mL OVA323-339 (Bachem) and 0.5 μg/mL LPS (Sigma). naïve CD4+ T cells from OTII mice were co-cultured with primed APC at indicated ratio for 72 hrs. After 72 hrs of culture, cells were transferred into V-bottom plates (BD), pelleted by centrifugation and incubated with antibody staining mix containing Ghost Dye™ Red 780 viability dye diluted in PBS for 15 minutes at 4° C. Cell surface antigens were stained for 15 minutes at 4° C. with an antibody staining mix containing Ghost Dye™ Red 780 viability dye diluted in PBS. Cells were fixed and permeabilized with BD Cytofix/Cytoperm™ for 20 minutes at 4° C. Antibodies against intracellular antigens were diluted in 1×BD Perm/Wash™ buffer and cells were stained for 30 minutes at 4° C. Cytometry data were acquired on a LSRII, Fortessa, Symphony A1 (Becton Dickinson, NJ). Foxp3 induction was assessed by expression of FOXP3.

ABCA1 mRNA = ABCA1 mRNA reduction in Raw cells; assay type: cell-based; set-up: key: ✓: using strict cutoffs with respect to DSHN for passing each metric; X: using strict cutoffs with respect to DSHN for passing each metric; conditions: pass/fail with respect to DSHN
Description: as §1

Treg expansion [2] = assay: Treg expansion in co-culture with compound-treated splenic CD11C+ dendritic cells; assay type: cell-based, mouse; set-up: key to Treg expansion Dendritic Cells: ✓: using strict cutoffs with respect to DSHN for passing each metric; X: using strict cutoffs with respect to DSHN for passing each metric; conditions: pass/fail with respect to DSHN
Experimental: as §2, §3

NR0B2 = molecular target: T1, NR0B2 (Homo sapiens, UniProt Q15466); assay: ABCA1 reporter screen to identify NR0B2 agonists (HepG2); assay type: cell-based; set-up: key: ✓: using strict cutoffs with respect to DSHN for passing each metric; X: using strict cutoffs with respect to DSHN for passing each metric; conditions: HepG2, 50 μM test compound, 1 μM GW3965; pass/fail with respect to DSHN
T1 construct: a reporter assay which makes use of the endogenous cholesterol homeostatic feedback loop; endogenous in cells; host or cells: HepG2
T1 sequence (Q15466 1-257): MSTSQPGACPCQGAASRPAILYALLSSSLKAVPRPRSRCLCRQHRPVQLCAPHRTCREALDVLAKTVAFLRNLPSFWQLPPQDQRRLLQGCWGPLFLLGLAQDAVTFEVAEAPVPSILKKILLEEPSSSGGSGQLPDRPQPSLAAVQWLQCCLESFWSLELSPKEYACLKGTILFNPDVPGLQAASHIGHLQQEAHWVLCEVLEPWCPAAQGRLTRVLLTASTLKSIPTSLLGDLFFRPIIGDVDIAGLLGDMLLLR
Description: as §1
Screening to identify NR0B2 agonists. HepG2 cells were co-transfected with ABCA1 renilla reporter plasmid and TK-control firefly luciferase vector at 20:1 using Lipofectamine 3000 reagent according to manufacturer's instructions for 24 hrs. Afterwards, 7000 cells were seeded in to 384 well f-bottom, white plates (Greiner Bio-One). Test compounds were added to the plates in a final working volume of 30 μL (for a final concentration of 50 μM) in presence of DMSO or 1 μM GW3965 and incubated for 20-24 hrs at 37° C. Luciferase activity was measured using the Luc-Pair Duo-Luciferase HT Assay kit (GeneCopoeia, Rockville, MD, USA) by adding luciferase substrates sequentially following manufacturer instructions. Luminescence was measured with 2 s integration times in a microplate reader (BioTek Cytation 5), 15 min after adding each substrate. The addition of reagents to the microplates was timed at each step to match the reading time delays and reading sequence of the microplate reader.

[3] = Low cellular toxicity screen; assay type: cell-based; set-up: key: ✓: using strict cutoffs with respect to DSHN for passing each metric; X: using strict cutoffs with respect to DSHN for passing each metric; conditions: pass/fail with respect to DSHN
Description: as §1
Resazurin cell viability assay. 20,000 cells were seeded into 96 well f-bottom, black plates (Corning Costar) and cell viability was measured using 100 μL resazurin per well at 0.3 mg/mL (Acros Organics). The fluorescence signal was quantified by plate reader (560 nm excitation/590 nm emission) at 2-3 h.

Compound	IL1b mRNA reduction (Raw Cells) (IL1b mRNA)	Treg expansion macrophages (Treg expansion [1])	ABCA1 mRNA reduction (Raw Cells) (ABCA1 mRNA)	Treg expansion Dendritic Cells (Treg expansion [2])	ABCA1 reporter screen (NR0B2)	Low Toxicity [3]
CCNS(=O)(=O)c1ccc2cc(OC)c(C(=O)OC)cc2c1 [Compound 6, Methyl 7-(N-ethylsulfamoyl)-3-methoxy-2-naphthoate]	X	✓	X	✓	✓	X
CCN(CC)S(=O)(=O)c1ccc2cc(O)c(C(=O)OC)cc2c1 [Compound 9, Methyl 7-(N,N-diethylsulfamoyl)-3-hydroxy-2-naphthoate]	✓	✓	X	✓	X	✓
CCNS(=O)(=O)c1cccc2cc(C(=O)OC)c(OC)cc12 [Compound 5, Methyl 5-(N-ethylsulfamoyl)-3-methoxy-2-naphthoate]	✓	✓	X	✓	X	✓
COC(=O)c1cc2cc(S(=O)(=O)N(C)C)ccc2cc1OC [Compound 8, Methyl 7-(N,N-dimethylsulfamoyl)-3-methoxy-2-naphthoate]	X	✓	X	✓	✓	✓
COC(=O)c1cc2cccc(S(=O)(=O)N(C)C)c2cc1OC [Compound 7, Methyl 5-(N,N-dimethylsulfamoyl)-3-methoxy-2-naphthoate]	✓	✓	X	✓	✓	✓
